Article PMC2833169, “Anti-malarial activity of a non-piperidine library of next-generation quinoline methanols” (Malaria Journal, 2010)
Values after ≈ are worked out from the molar mass of the structure shown. Like-named read-outs stand apart in the source and are kept apart here.

Key:
[1] = in vitro; details: mouse
Experimental: (§1) General cytotoxicity was assessed by first determining LC50 's against a rodent macrophage (RAW) cell line using the 3-(4,5-dimethylthiazole-2-yl)-2,5-diphenyltetrazolium bromide (MTT) assay as described in one of our earlier studies. This screen was conducted to identify compounds that may require de-selection due to generalized toxicity. […] In vitro neurocytotoxicity was assessed by determining LC50s against primary mouse neurons using the MTT assay as described previously. Inhibition of the A2A and A1 receptors was determined at 200 nM in duplicate by Caliper Biosciences (Hanover, Maryland).

[2] = test system: P. falciparum strain TM91C235; experiment: labeled hypoxanthine susceptibility assay, P. falciparum TM91C235; format: cell-based, Plasmodium falciparum; details: Plasmodium falciparum
Experimental: (§2) The in vitro activities of quinoline methanols against P. falciparum strains W2, D6, TM91C235, and TM90C2A were evaluated using the traditional labeled hypoxanthine assay of Desjardins et al as modified by Milhous et al. These four P. falciparum strains were selected since they have various levels of resistance to conventional anti-malarials.

[3] = target: T1, CYP450 2C19 (Homo sapiens, UniProt P33261); experiment: CYP450 inhibition kit (drug-drug interaction), 2C19; format: biochemical
T1 construct: purchased BD Gentest (Franklin Lakes, NJ)
T1 sequence (P33261 whole entry): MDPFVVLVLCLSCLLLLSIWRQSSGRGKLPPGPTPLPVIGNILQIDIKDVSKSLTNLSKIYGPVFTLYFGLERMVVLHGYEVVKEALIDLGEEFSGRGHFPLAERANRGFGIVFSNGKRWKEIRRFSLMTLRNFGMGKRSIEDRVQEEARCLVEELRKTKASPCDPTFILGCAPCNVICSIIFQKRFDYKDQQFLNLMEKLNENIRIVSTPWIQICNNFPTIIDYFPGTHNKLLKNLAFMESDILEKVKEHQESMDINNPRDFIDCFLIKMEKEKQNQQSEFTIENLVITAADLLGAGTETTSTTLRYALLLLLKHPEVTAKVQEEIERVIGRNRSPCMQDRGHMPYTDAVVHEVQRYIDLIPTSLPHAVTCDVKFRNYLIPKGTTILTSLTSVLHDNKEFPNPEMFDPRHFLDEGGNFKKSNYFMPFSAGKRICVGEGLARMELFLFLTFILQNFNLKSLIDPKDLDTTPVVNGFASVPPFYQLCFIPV
Experimental: (§3) Low IC50s against specific cytochrome P450 isoforms may indicate the potential for a harmful drug interaction to occur in vivo with substrates of that isoform. A lack of metabolic stability in vitro may indicate potential metabolic instability in vivo, and, therefore, a shorter half-life. Drug interaction potential was evaluated in vitro using BD Gentest (Franklin Lakes, NJ) CYP450 inhibition kits as recommended by the manufacturer. Metabolic stability assessments were conducted using in vitro liver microsomes. […] The reaction is started with the addition of 1 U/mL glucose-6-phosphate dehydrogenase G6PD. The mixture is incubated on a shaking platform at 37°C, and aliquots are taken and quenched with the addition of an equal volume of cold acetonitrile at 0, 10, 20, 30, and 60 min. Samples are centrifuged at 3700 rpm for […] at 20°C to remove debris. Sample quantification is carried out by LC/MS, and metabolic half-life is calculated by log plots of the total ion chromatograph area remaining.

[4] = test system: P. falciparum strain D6; experiment: labeled hypoxanthine susceptibility assay, P. falciparum D6; format: cell-based, Plasmodium falciparum; details: Plasmodium falciparum
Experimental: as §2

[5] = target: T2, CYP450 3A4 (Homo sapiens, UniProt P08684); experiment: CYP450 inhibition kit (drug-drug interaction), 3A4; format: biochemical
T2 construct: purchased BD Gentest (Franklin Lakes, NJ)
T2 sequence (P08684 whole entry): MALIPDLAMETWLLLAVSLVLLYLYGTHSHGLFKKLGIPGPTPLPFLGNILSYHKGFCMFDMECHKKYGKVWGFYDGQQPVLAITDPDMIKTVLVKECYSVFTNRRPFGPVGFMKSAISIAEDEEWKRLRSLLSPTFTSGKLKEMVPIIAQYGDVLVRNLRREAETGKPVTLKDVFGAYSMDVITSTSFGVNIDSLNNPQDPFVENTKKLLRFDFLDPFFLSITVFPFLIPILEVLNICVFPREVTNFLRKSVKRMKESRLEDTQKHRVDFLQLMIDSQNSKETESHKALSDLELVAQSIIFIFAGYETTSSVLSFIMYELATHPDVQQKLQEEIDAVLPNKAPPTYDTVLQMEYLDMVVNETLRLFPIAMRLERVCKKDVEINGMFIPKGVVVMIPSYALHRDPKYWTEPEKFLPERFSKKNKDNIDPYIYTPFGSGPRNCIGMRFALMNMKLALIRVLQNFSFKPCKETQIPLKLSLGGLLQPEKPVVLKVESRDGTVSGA
Experimental: as §3

[6] = target: T3, CYP450 2D6 (Homo sapiens, UniProt P10635); experiment: CYP450 inhibition kit (drug-drug interaction), 2D6; format: biochemical
T3 construct: purchased BD Gentest (Franklin Lakes, NJ)
T3 sequence (P10635 whole entry): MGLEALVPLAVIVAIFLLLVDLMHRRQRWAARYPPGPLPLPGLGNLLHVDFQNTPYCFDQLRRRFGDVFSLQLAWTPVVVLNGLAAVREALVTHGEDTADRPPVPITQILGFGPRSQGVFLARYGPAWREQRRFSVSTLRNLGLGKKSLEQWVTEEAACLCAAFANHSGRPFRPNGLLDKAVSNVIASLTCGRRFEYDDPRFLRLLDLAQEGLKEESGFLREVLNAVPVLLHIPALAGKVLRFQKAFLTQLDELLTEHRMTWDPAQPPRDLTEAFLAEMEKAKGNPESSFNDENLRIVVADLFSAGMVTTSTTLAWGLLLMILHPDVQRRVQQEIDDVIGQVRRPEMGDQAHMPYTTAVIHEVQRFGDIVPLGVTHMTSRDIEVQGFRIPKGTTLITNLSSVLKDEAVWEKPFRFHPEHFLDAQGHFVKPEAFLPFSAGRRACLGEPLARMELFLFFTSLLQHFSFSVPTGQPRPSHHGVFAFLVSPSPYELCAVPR
Experimental: as §3

[7] = test system: rodent macrophage (RAW) cell line; experiment: cells; details: Mus musculus, Macrophage, read-out: Macrophage IC50
Experimental: as §1

[8] = test system: P. falciparum strain TM90C2A; experiment: labeled hypoxanthine susceptibility assay, P. falciparum TM90C2A; format: cell-based, Plasmodium falciparum; details: for IC90: Plasmodium falciparum, TM90C2A; for CSI (C2A/W2): ratio of IC90 C2A to IC90 W2
Experimental: as §2

[9] = target: T4, CYP450 1A2 (Homo sapiens, UniProt P05177); experiment: CYP450 inhibition kit (drug-drug interaction), 1A2; format: biochemical
T4 construct: purchased BD Gentest (Franklin Lakes, NJ)
T4 sequence (P05177 1-516): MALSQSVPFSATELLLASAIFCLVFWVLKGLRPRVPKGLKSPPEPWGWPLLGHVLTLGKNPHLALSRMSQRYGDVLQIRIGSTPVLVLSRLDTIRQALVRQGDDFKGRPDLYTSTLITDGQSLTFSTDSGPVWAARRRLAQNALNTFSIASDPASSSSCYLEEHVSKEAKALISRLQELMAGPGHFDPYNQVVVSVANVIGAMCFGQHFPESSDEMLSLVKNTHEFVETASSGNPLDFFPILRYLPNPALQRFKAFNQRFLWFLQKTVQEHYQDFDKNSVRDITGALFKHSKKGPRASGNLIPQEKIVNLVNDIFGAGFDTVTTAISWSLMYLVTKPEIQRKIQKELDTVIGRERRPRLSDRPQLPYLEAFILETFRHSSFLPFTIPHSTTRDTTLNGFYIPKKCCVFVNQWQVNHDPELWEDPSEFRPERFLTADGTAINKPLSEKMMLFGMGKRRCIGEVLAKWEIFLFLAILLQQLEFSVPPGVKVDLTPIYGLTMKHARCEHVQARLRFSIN
Experimental: as §3

[10] = target: T5, CYP450 2C9 (Homo sapiens, UniProt P11712); experiment: CYP450 inhibition kit (drug-drug interaction), 2C9; format: biochemical
T5 construct: purchased BD Gentest (Franklin Lakes, NJ)
T5 sequence (P11712 whole entry): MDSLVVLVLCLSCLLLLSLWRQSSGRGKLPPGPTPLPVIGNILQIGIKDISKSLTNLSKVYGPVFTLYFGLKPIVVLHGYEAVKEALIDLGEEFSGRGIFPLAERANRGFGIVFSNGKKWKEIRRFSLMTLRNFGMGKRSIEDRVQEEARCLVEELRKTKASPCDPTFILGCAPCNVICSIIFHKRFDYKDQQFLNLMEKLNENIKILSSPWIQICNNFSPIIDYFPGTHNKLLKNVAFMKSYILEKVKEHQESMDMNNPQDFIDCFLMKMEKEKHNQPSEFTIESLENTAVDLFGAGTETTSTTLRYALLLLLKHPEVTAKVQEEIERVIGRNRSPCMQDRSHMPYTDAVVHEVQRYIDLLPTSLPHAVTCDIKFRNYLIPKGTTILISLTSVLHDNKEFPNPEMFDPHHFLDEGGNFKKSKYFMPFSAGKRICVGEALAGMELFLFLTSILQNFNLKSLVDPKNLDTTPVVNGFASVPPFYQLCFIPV
Experimental: as §3

[11] = test system: P. falciparum strain W2; experiment: labeled hypoxanthine susceptibility assay, P. falciparum W2; format: cell-based, Plasmodium falciparum; details: Plasmodium falciparum
Experimental: as §2

[12] = metabolic stability in mouse liver microsomes; format: in vitro ADME; details: for half-life at 1 μM: pH 7.4, mouse liver microsomes, read-out: Half-life in mouse micro; for HL in Microsomes: Figure 3, species of microsomes not given
Experimental: as §3, with “Interesting compounds were also submitted for drug-drug interaction and metabolic stability assays. Low” for “Low”

[13] = test system: MDR1-transfected MDCK cell monolayers; experiment: in vitro; details: dog, MDCK-MDR1, 2 h, 5 μM, pH 7.4
Experimental: (§4) For this reason, the apparent permeability of selected compounds across MDR1-transfected MDCK cell monolayers was determined. This assay is an in vitro surrogate of the blood-brain barrier.
(§5) Permeability was determined by Absorption Systems (Exton, PA). MDR1-MDCK cell monolayers were grown to confluence on collagen-coated, microporous, polycarbonate membranes in 12-well Costar Transwell plates. […] The permeability assay buffer was Hanks Balanced Salt Solution containing 10 mM HEPES and 15 mM glucose at a pH of 7.4. A known p-glycoprotein inhibitor cyclosporin A (CSA) was also added to the assay buffer at 10 μM. Bovine serum albumin (1%) was added to the receiver well. The dosing solution concentrations of the test compounds were 5.0 μM in the assay buffer. All cell monolayers were first pre-incubated for 30 minutes with assay buffer. After 30 minutes, the buffer was removed, replaced with fresh buffer, and time was recorded as 0. […] Cell monolayers were dosed on the apical side (A-to-B) or basolateral side (B-to-A) and incubated at 37°C with 5% CO2 in a humidified incubator. After 2 hours, aliquots were taken from the receiver chambers. Samples were taken from the donor chamber at 0 and 2 hours. Each determination was performed in duplicate. The lucifer yellow flux was also measured for each monolayer to ensure no damage was inflicted to the cell monolayers during the flux period. All samples were assayed by LC/MS/MS using electrospray ionization.
(§6) Apparent permeability in the apical (A-B direction), PappA-B, and percent recovery are reported. Apparent permeability is a measure of the rate of transport across the cell monolayer. Percent recovery refers to the amount of compound recoverable at the end of the assay. Low recovery may indicate non-specific binding to assay plates, instability or accumulation in the cell pellet.
(§7) The apparent permeability, Papp, and percent recovery were calculated as follows:
(§8) Papp = (dCr/dt) × Vr/(A × C0) (1)
(§9) Percent Recovery = 100 × ((Vr × Cr^final) + (Vd × Cd^final))/(Vd × […]) (2)

[14] = in vitro; details: dog, MDCK-MDR1, pH 7.4
Experimental: as §4, §5, §6, §7, §8, §9

[15] = in vitro; details: mouse; remark: listed apart in the source
Experimental: as §1

[16] = D6, read-out: IC90 Pf D6, P. falciparum D6, mefloquine: historical mean +/- SD (n)
[17] = D6, read-out: PF D6 IC90, P. falciparum D6

SMILES: CCC(CC)CNCC(O)c1cc(C(F)(F)F)nc2c(C(F)(F)F)cccc12 (stereo not shown) [WR308388]
- CC50 [1]: 56 µM
- IC90 ([2]; read-out: IC90 Pf C235): 0.011 µg/mL (≈ 0.0269 µM)
- IC90 ([2]; read-out: PF C235 IC90): 0.0109 µg/mL (≈ 0.0267 µM)
- IC50 [3]: 3.4 µM
- IC90 [4, 16]: 0.0067 µg/mL (≈ 0.0164 µM)
- IC90 [4, 17]: 0.00671 µg/mL (≈ 0.0164 µM)
- IC50 [5]: 33 µM
- IC50 [6]: 0.8 µM
- IC50 [7]: 15.7 µM
- IC90 ([8]; read-out: IC90 Pf C2A): 0.01 µg/mL
- IC90 ([8]; read-out: PF C2A IC90): 0.0102 µg/mL
- IC90 ([8]; read-out: IC90 PfC2A): 23 nM
- CSI (C2A/W2) [8]: 9.1
- IC50 [9]: 1.2 µM
- IC50 [10]: 13 µM
- IC90 ([11]; W2, read-out: IC90 Pf W2): 0.0011 µg/mL (≈ 0.00269 µM)
- IC90 ([11]; W2, read-out: PF W2 IC90): 0.00112 µg/mL (≈ 0.00274 µM)
- half-life at 1 μM [12]: 16 min

SMILES: CC(C)CC(C)NCC(O)c1cc(C(F)(F)F)nc2c(C(F)(F)F)cccc12 (stereo not shown) [WR308413]
- CC50 [1]: > 120 µM
- IC90 ([2]; read-out: IC90 Pf C235): 0.015 µg/mL (≈ 0.0367 µM)
- IC90 ([2]; read-out: PF C235 IC90): 0.0147 µg/mL (≈ 0.036 µM)
- IC50 [3]: 5.8 µM
- IC90 [4, 16]: 0.012 µg/mL (≈ 0.0294 µM)
- IC90 [4, 17]: 0.0116 µg/mL (≈ 0.0284 µM)
- IC50 [5]: > 40 µM
- IC50 [6]: 1 µM
- IC50 [7]: 8.5 µM
- IC90 ([8]; read-out: IC90 Pf C2A): 0.0075 µg/mL
- IC90 ([8]; read-out: PF C2A IC90): 0.00748 µg/mL
- IC90 ([8]; read-out: Pf C2A IC90 nM values calculated using MW in Column C): 18 nM
- IC90 ([8]; read-out: IC90 PfC2A): 171 nM
- CSI (C2A/W2) [8]: 7.5
- IC50 [9]: 26 µM
- IC50 [10]: 19 µM
- IC90 ([11]; W2, read-out: IC90 Pf W2): 0.0011 µg/mL (≈ 0.00269 µM)
- IC90 ([11]; W2, read-out: PF W2 IC90): 0.001 µg/mL (≈ 0.00245 µM)
- half-life at 1 μM [12]: 19 min

SMILES: CC1C(NCC(O)c2cc(C(F)(F)F)nc3c(C(F)(F)F)cccc23)CC2CC1C2(C)C (stereo not shown) [WR308446]
- CC50 [1]: 48 µM
- IC90 ([2]; read-out: IC90 Pf C235): 0.019 µg/mL (≈ 0.0413 µM)
- IC90 ([2]; read-out: PF C235 IC90): 0.0189 µg/mL (≈ 0.041 µM)
- IC50 [3]: 14 µM
- IC90 [4, 16]: 0.014 µg/mL (≈ 0.0304 µM)
- IC90 [4, 17]: 0.0143 µg/mL (≈ 0.0311 µM)
- IC50 [5]: > 40 µM
- IC50 [6]: 9.1 µM
- IC50 [7]: 8.85 µM
- IC90 ([8]; read-out: IC90 Pf C2A): 0.016 µg/mL
- IC90 ([8]; read-out: PF C2A IC90): 0.0155 µg/mL
- IC90 ([8]; read-out: IC90 PfC2A): 34 nM
- IC50 [9]: > 40 µM
- IC50 [10]: 16 µM
- IC90 ([11]; W2, read-out: IC90 Pf W2): < 0.001 µg/mL
- IC90 ([11]; W2, read-out: PF W2 IC90): < 0.00048 µg/mL
- half-life at 1 μM [12]: 13 min

SMILES: OC(CNCC1CCCN1)c1cc(C(F)(F)F)nc2c(C(F)(F)F)cccc12 (stereo not shown) [WR308621]
- % recovery (MDCK-MDR1 permeability assay) [13]: 28%
- Papp A→B at 2 h, 5 μM [14]: < 3.3 ×10⁻⁶ cm/s
- IC90 ([2]; read-out: IC90 Pf C235): 0.1 µg/mL (≈ 0.245 µM)
- IC90 [4, 16]: 0.092 µg/mL (≈ 0.226 µM)
- CC50 [15]: 20.3 µg/mL (≈ 49.8 µM)
- IC90 ([8]; read-out: IC90 Pf C2A): 0.198 µg/mL
- IC90 ([11]; W2, read-out: IC90 Pf W2): 0.046 µg/mL (≈ 0.113 µM)
- HL in Microsomes [12]: > 60 min

SMILES: CCCCNCCNCC(O)c1cc(C(F)(F)F)nc2c(C(F)(F)F)cccc12 (stereo not shown) [WR318746]
- % recovery (MDCK-MDR1 permeability assay) [13]: 42%
- Papp A→B at 2 h, 5 μM [14]: 5.9 ×10⁻⁶ cm/s
- IC90 ([2]; read-out: IC90 Pf C235): 0.283 µg/mL (≈ 0.668 µM)
- IC90 [4, 16]: 0.155 µg/mL (≈ 0.366 µM)
- CC50 [15]: 28.5 µg/mL (≈ 67.4 µM)
- IC90 ([8]; read-out: IC90 Pf C2A): 0.319 µg/mL
- IC90 ([11]; W2, read-out: IC90 Pf W2): 0.09 µg/mL (≈ 0.213 µM)
- HL in Microsomes [12]: > 60 min
